# Test results as given in US5066580A, “Xanthene dyes that emit to the red of fluorescein” (priority 1990, dated 1991).
# Read-outs that look alike come from different tables or passages of the source.
# What was measured:
# [1] = Absorbance maximum and extinction coefficient; type: physicochemical; conditions: for red shift of absorbance maxima vs carboxy analogs: compared to carboxy analogs 1, 4 and 7
# Procedure: First, the extinction coefficient of compounds 1-9 and 14 was determined. Stock solutions (5×10^-3 M) of each dye were made by dissolving the dye in two equivalents of 0.1 N NaOH and making up the volume with carbonate/bicarbonate buffer (0.16, 0.34 M, pH 9.5). The solution was diluted ([…]) in additional buffer (final pH 9.5-10) and the absorbance spectrum measured. A stock solution (1.2×10^-3 M) of Vita Blue was prepared in DMSO, diluted into citrate buffer (0.1 M, pH 5 2) to give a final concentration of 1.6×10^-5 M and the absorbance spectrum measured. A stock solution (8.2×10^-3 M) of VBDB was prepared in DMSO and diluted into pyrophosphate buffer (0.1 M, pH 7.2) to give a final concentration of 8.1×10^-5 M and the absorbance spectrum measured on a Beckman model DU-6UV visible spectrophotometer.
# (§1) Finally, the spectral characteristics of compounds 1-9 was determined. The extinction coefficients and quantum yields or compounds 1-9 were determined at pH 9.5. The extinction coefficient and quantum yield of monoprotonated Vita Blue was also determined at pH 5.2. The extinction coefficient and the quantum yield of VBDB were determined at pH 7.2.
# [2] = Fluorescence emission maximum and quantum yield; type: physicochemical; conditions: for red shift of emission maxima vs carboxy analogs: compared to carboxy analogs 1, 4 and 7; for effect of sulfo group on extinction coefficient and quantum yield: compared to carboxy analogs 1 and 7
# Procedure: Second, quantum yields of compounds 1-9 and 14 were measured. Solutions (1×10^-6 M) of compounds 1-9 were prepared in carbonate/ bicarbonate buffer (pH 9.5). Fluorescence emission spectra were measured on a Perkin-Elmer MPF-2A fluorescence spectrophotometer in 3-mL disposable plastic cuvettes. The excitation wavelength was set 30 nm to the red of the maximum excitation wavelength and the emission spectra measured. The area under the emission spectrum was measured (F). The quantum yield (.PHI.) was determined using the following equation, F-kIo .PHI.εcb, where F is the fluorescence, k is a fluorimeter constant, Io is the light intensity at the exciting wavelength, ε is the extinction coefficient at the exciting wavelength, c is the concentration of the dye, and b is the pathlength of the cuvette. The value of k was determined for three different emission wavelength regions by using literature values of .PHI. and measuring the fluorescence of fluorescein (470-670 nm, .PHI.=0.92), eosin (500-700 nm, .PHI.=0.19) and allophycocyanin (Applied BioSystems, 600-800 nm, .PHI.=0.68). The value of Io was determined from a table that was generated by scanning the range of exciting wavelengths on the fluorescence spectrophotometer with the emission monochrometer open; a piece of white paper was placed in the sample holder to reflect the exciting light. The concentration of the dyes were 0.6-1.0 uM; this value in each case was below the concentration ([…]) required in order for the equation to be valid.
# as §1
# [3] = 470-670 nm (fluorescein), 500-700 nm (eosin), 600-800 nm (allophycocyanin); cited from earlier work
# human white blood cells = assay: Staining of lysed whole blood, fluorescence by flow cytometry; type: cell-based; conditions: 1 uM dye
# Procedure: After characterizing the various xanthene dyes prepared in accordance with this invention, one of the dyes (VBDB) was used to stain cells. The ability of VBDB to stain cells was compared with BCECF-AM, a membrane permeable esterase substrate (Molecular Probes) and fluorescein diacetate (FDA). […] After incubation, the tube was centrifuged. This procedure specifically lyses red blood cells leaving the white cells intact and viable. The supernatant was removed and the white blood cells which remained were washed twice and resuspended in blood cell diluent (1 mL, Diagnostic Technology, Inc.). The cell concentration and the percentage of dead cells were ascertained by counting the cells manually using a fluorescent microscope and a hemacytometer; acridine orange and ethidium bromide were used to stain live and dead cells respectively.
# Four samples of approximately 1.7×10^6 cells then were placed in polystyrene tubes. To each tube was added one of the following solutions (1 mL): FDA (1 uM) BCECF-AM (1 uM), VBDB (0.8 uM), or VBDB (8.0 uM). The dye solutions were prepared by diluting a stock solution of each dye (1-8 mM in DMSO) into blood cell diluent. The tubes were kept at room temperature for 30 minutes. The samples were washed three times and resuspended in blood cell diluent (1 mL).
# A bandpass 530/30 emission filter was used for both FDA and BCECF-AM, while a bandpass 660/20 emission filter was used for VBDB. Data from 10,000 events were acquired from each of these samples immediately after staining, one hour after staining, and two hours after staining.
# Referring to FIG. 2, VBDB, BCECF-AM and FDA were compared as vital dyes by staining lysed whole blood and examining the fluorescence by flow cytometry. […] Four samples of cells were incubated with BCECF AM (1 uM), FDA (1 uM) and VBDB (0.8 uM, 8.0 uM). The cells were analyzed immediately after staining (t=0), after one hour (t=1) and after two hours (t=2).
# The data in FIG. 2 also was used to quantitate the "live" cells and the "dead" cells. […] It was assumed the live cells were those cells which retained the dye (the right peak) and that dead cells were those cells whose membranes had become leaky (the left peak). By setting the gate to the immediate left of the main peak, the "dead" cells to the left of the gate were counted.
# [4] = cited from earlier work
# [5] = Absorbance titration of Vita Blue; type: physicochemical
# Procedure: Absorbance titration of Vita Blue then was measured. To a plastic cuvette (3 mL) was added the following solutions: citrate buffer (0.1 mL, 0.1 M, pH 4.2), pyrophosphate buffer (0.1 mL, 0.1 M, pH 6.2), EPPS buffer (0.1 mL, 0.1 M, pH 8.4), water (2.6 mL), HCl solution (5 uL, 6 N) and Vita Blue solution (8 or 40 uL, […]). The final concentration of Vita Blue was 3.4×10^-6 or 1.7×10^-5 M. The initial pH was approximately 3. Aliquots of NaOH solution were added (1-3 uL, 4 N) and the pH and the absorbance spectrum from 700 to 400 nm measured.
# [6] = Fluorescence emission spectra of Vita Blue at varying pH; type: physicochemical
# Procedure: Fluorescence emission spectra of Vita Blue also was determined. To each of five plastic cuvettes (3 mL) were added one of the following buffered solutions (0.1 M): citrate buffer (pH 4.21), pyrophosphate buffer at three pH values (6.22, 7.21, 9.05), and EPPS buffer (pH 8.37). Vita Blue solution (5 uL, 1.25×10^-3 M) was added, and the fluorescence emission spectra from 450 to 650 nm was measured. The excitation wavelength was 540 nm.
# [7] = pH 5.2 (monoprotonated Vita Blue)
Compound,Abs Max ([1]; pH 9.5) [nm],ε (extinction coefficient) ([1]; pH 9.5) [M⁻¹ cm⁻¹],EM Max ([2]; pH 9.5) [nm],"Quantum Yield ([2]; pH 9.5, dianionic form)",further results
"CN(C)c1ccc2c(-c3ccccc3C(=O)O)c3ccc(=O)cc-3oc2c1 [Compound 3, Rhodol]",522,57000,545,0.20,
"O=C(O)c1ccccc1-c1c2ccc3cc(O)ccc3c2oc2c1ccc1cc(=O)ccc12 [Compound 7, naphthofluorescein]",595,44000,660,0.14,
"O=C(O)c1ccccc1-c1c2c3ccccc3c(=O)c(Br)c-2oc2c(Br)c(O)c3ccccc3c12 [Compound 5, 1,2,7,8-Dibenzo-4.5-dibromofluorescein]",549,24000,581,0.05,excitation maxima compared to parent dyes [1]: at longer wavelengths; extinction coefficient and quantum yield compared to parent dyes [2]: lower than the parent dyes
O=C1OC2(c3ccccc31)c1cc(Br)c(O)c(Br)c1Oc1c2cc(Br)c(O)c1Br [eosin],,,,,"quantum yield, literature value [3]: 0.19"
"CC(=O)Oc1ccc2c(c1)Oc1cc(OC(C)=O)ccc1C21OC(=O)c2ccccc21 [FDA, fluorescein diacetate, reference compound]",,,,,retention of initial fluorescence by stained cells over time (human white blood cells): did not retain their initial fluorescence over time
allophycocyanin,,,,,"quantum yield, literature value [3]: 0.68"
"O=C(O)c1ccccc1-c1c2ccc3c(Br)c(O)ccc3c2oc2c1ccc1c(Br)c(=O)ccc12 [Compound 8, 4,10 Dibromonaphthofluorescein]",605,32000,682,0.05,
"O=c1cc2oc3cc(O)c4ccccc4c3c(-c3ccccc3S(=O)(=O)O)c-2c2ccccc12 [Compound 6, 1,2,7,8-Dibenzosulfonefluorescein]",541,81000,567,0.48,red shift of absorbance maxima vs carboxy analogs [1]: 6-14 nm; red shift of emission maxima vs carboxy analogs [2]: 1-5 nm; quantum yield vs carboxy analog ([2]; compared to compound 4): twice the quantum yield
"O=C(O)c1ccccc1-c1c2ccc(=O)cc-2oc2cc(O)ccc12 [Compound 1, fluorescein]",491,80000,516,0.92,"Quantum Yield ([4]; background): 0.93; difference of pKa2 and pKa3 ([4]; fluorescein and related compounds): 2.3 units; quantum yield, literature value [3]: 0.92"
"O=c1ccc2c(-c3ccccc3S(=O)(=O)O)c3ccc(O)cc3oc-2c1 [Compound 2, Sulfonefluorescein]",497,78000,517,0.92,red shift of absorbance maxima vs carboxy analogs [1]: 6-14 nm; red shift of emission maxima vs carboxy analogs [2]: 1-5 nm; effect of sulfo group on extinction coefficient and quantum yield [2]: little effect
"O=C(O)c1ccccc1-c1c2c3ccccc3c(=O)cc-2oc2cc(O)c3ccccc3c12 [Compound 4, 1,2,7,8 dibenzofluorescein]",534,81000,565,0.24,
O=c1ccc2c(ccc3c(-c4ccccc4S(=O)(=O)O)c4ccc5cc(O)ccc5c4oc32)c1 [Compound 9],609,36000,665,0.15,"excitation maxima compared to parent dyes [1]: at longer wavelengths; red shift of absorbance maxima vs carboxy analogs [1]: 6-14 nm; Abs Max [1, 7]: 524 nm; ε (extinction coefficient) [1, 7]: 13000 M⁻¹ cm⁻¹; absorbance peak maximum (apparent dimer) ([5]; 1.7×10^-5 M, pH 3.10, 4.06 and 6.45): 600 nm; isobestic point, absorbance titration ([5]; 3.4×10^-6 M): approximately 540 nm; isobestic point, emission spectra ([6]; excitation 540 nm, varying pH): 630 nm; dual fluorescence ([6]; mono- and diprotonated forms): showed dual fluorescence; extinction coefficient and quantum yield compared to parent dyes [2]: lower than the parent dyes; separation of emission maxima of monoanionic and dianionic forms [2]: 100 nm; red shift of emission maxima vs carboxy analogs [2]: 1-5 nm; effect of sulfo group on extinction coefficient and quantum yield [2]: little effect; EM Max [2, 7]: 570 nm; Quantum Yield ([2]; pH 5.2, monoanionic form): 0.04"
